From PMC6804006, “Synthesis, Biological Activities and Docking Studies of Novel 4-(Arylaminomethyl)benzamide Derivatives as Potential Tyrosine Kinase Inhibitors” (Molecules, 2019)

Tests used:
[1] = tested on: OKP-GS (carcinoma of the kidney); assay: MTT anti-proliferative assay, OKP-GS; format: cell-based; conditions: Homo sapiens, 48 h, 50% growth inhibition
Experimental: (§1) Each in vitro experiment was performed at least in triplicate, and the standard deviation of absorbance was less than 10% of the mean. For the in vitro assays, a stock solution (1% DMSO in the appropriate buffer with the tested compound diluted under sonication) was prepared from which several dilutions were made with the appropriate buffer.
(§2) Human cell lines were obtained from the Institute of Cytology, Russian Academy of Sciences. […] Cellular sensitivities to clofarabine and its lipid derivatives were measured with the MTT assay. Cells were plated in triplicate in 96-well plates (10^5 cells/well for suspended cell cultures and 5 × 10^3 cells/well for monolayer cultures); on the same day (suspended cell cultures) or on the following day (monolayer cultures), compounds were added at the appropriate dilutions. Plates were incubated under standard conditions for 48 h. Thereafter, 10 μL of MTT (Sigma) in phosphate-buffered saline (5 mg/mL) was added. The plates were incubated for an additional 4 h, and 150 μL of dimethyl sulfoxide (DMSO) was added to dissolve the formazan crystals. The optical density was read on a HALO MPR-95 Microplate Reader (Dynamica Scientific Ltd., Australia) at 570 nm. The antiproliferative effects were determined as degrees of inhibition of tumor cells (%).

[2] = tested on: HL-60 (promyelocytic leukemia); assay: MTT anti-proliferative assay, HL-60; format: cell-based, human; conditions: 50% growth inhibition
Experimental: as §1, §2

HeLa (cervix carcinoma) = assay: MTT anti-proliferative assay, HeLa; format: cell-based; conditions: Homo sapiens, 48 h, 50% growth inhibition
Experimental: as §1, §2

HER-2 = molecular target: T1, HER-2 (Homo sapiens, UniProt P04626); assay: ADP-Glo kinase inhibitory assay, HER-2; format: biochemical; conditions: read-out: % Inhibition at 10 nM, HER-2
T1 construct: purchased Promega
Experimental: (§3) We investigated the kinase selectivity of targeted compounds against eight receptor tyrosine kinases including EGFR (epidermal growth factor receptor), HER-2 and HER4 (human epidermal growth factor receptor), IGF1R (insulin like growth factor 1 receptor), InsR (gene insulin receptor), KDR (kinase insert domain receptor), and PDGFRa and PDGFRb (platelet-derived growth factor receptors). The assay was performed using the Kinase-Glo Plus luminescence kinase assay kit (TK-1+ADP-Glo™, Promega, San Diego, CA, USA). It measures kinase activity by quantitating the amount of ATP remaining in solution following a kinase reaction.
(§4) The assay was performed using a Kinase Selectivity Profiling System (TK-1+ADP-Glo™ Assay and TK-2+ADP-Glo™ Assay, Promega), where the kinase activity was measured by quantifying the amount of ADP produced during a kinase reaction. The assay is performed in two steps; firstly, after the kinase reaction, an equal volume of ADP-Glo™ Reagent is added to terminate the kinase reaction and deplete the remaining ATP. Secondly, the Kinase Detection Reagent is added to simultaneously convert ADP to ATP and allow the newly synthesized ATP to be measured using a luciferase/luciferin reaction. The luminescent signal generated is proportional to the ADP concentration produced and is correlated with kinase activity. Our compounds were diluted with kinase buffer (5% DMSO), and 1 μL of the dilution was added to a 5-μL reaction so that the final concentration of DMSO was 1% in all of reactions. All of the enzymatic reactions were conducted at 23 °C for 60 min. The 5-μL reaction mixture contained 1µL of the compound solution, 2µL of the enzyme solution, and 2 µL of kinase substrate. After the enzymatic reaction, 5 µL of ADP-Glo™ Reagent (Promega, USA) was added to each reaction, and the plate was incubated for 40 min at 23 °C. Then, 10 µL of Kinase Detection Reagent (Promega, USA) was added to each reaction, and the plate was incubated for 30 min at 23 °C. Luminescence signal was measured using an Infinite M 200 plate reader (Tecan, Switzerland).
(§5) Kinase activity assays were performed in duplicate at each concentration. The luminescence data were analyzed using the computer software, Magellan™. The difference between luminescence intensities in the absence of Kinase (Lut) and in the presence of Kinase (Luc) was defined as 100% activity (Lut − Luc).

A549 (lung carcinoma) = assay: MTT anti-proliferative assay, A-549; format: cell-based; conditions: Homo sapiens, 48 h, 50% growth inhibition
Experimental: as §1, §2

PDGFRa = molecular target: T2, PDGFRa (Homo sapiens, UniProt P16234); assay: ADP-Glo kinase inhibitory assay, PDGFRa; format: biochemical; conditions: read-out: % Inhibition at 10 nM, PDGFRa
T2 construct: purchased Promega
Experimental: as §3, §4, §5

[3] = tested on: K-562 (chronic myelogenous leukemia); assay: MTT anti-proliferative assay, K-562; format: cell-based; conditions: Homo sapiens, K562, 48 h, 50% growth inhibition
Experimental: as §1, §2

[4] = tested on: MCF-7 (breast adenocarcinoma); assay: MTT anti-proliferative assay, MCF-7; format: cell-based; conditions: Homo sapiens, MCF7, 48 h, 50% growth inhibition
Experimental: as §1, §2

KDR (VEGFR2) = molecular target: T3, KDR (VEGFR2) (Homo sapiens, UniProt P35968); assay: ADP-Glo kinase inhibitory assay, KDR; format: biochemical; conditions: 10 nM
T3 construct: purchased Promega
Experimental: as §3
Vascular endothelial growth factor receptor 2 (VEGFR2), also called kinase insert domain receptor (KDR), is a tyrosine kinase receptor for VEGFs that plays a central role in tumor angiogenesis; therefore, the inhibition of VEGFR2 is a promising therapeutic strategy for inhibiting angiogenesis and tumor growth.
as §4, §5

EGFR = molecular target: T4, EGFR (Homo sapiens, UniProt P00533); assay: ADP-Glo kinase inhibitory assay, EGFR; format: biochemical; conditions: read-out: % Inhibition at 10 nM, EGFR
T4 construct: purchased Promega
Experimental: as §3, §4, §5

PDGFRb = molecular target: T5, PDGFRb (Homo sapiens, UniProt P09619); assay: ADP-Glo kinase inhibitory assay, PDGFRb; format: biochemical; conditions: read-out: % Inhibition at 10 nM, PDGFRb
T5 construct: purchased Promega
Experimental: as §3, §4, §5

[5] = tested on: RPMI 1788 (B lymphocyte, human normal cells); assay: MTT assay on normal cells RPMI 1788; format: cell-based; conditions: MTT 48 h
Experimental: as §1
Human cell lines were obtained from the Institute of Cytology, Russian Academy of Sciences. The cell lines studied were maintained in RPMI 1640 medium (AppliChem, Darmstadt, Germany) supplemented with 20% (HL-60, RPMI 1788) fetal calf serum (HyClone, Cramlington, UK), in DMEM (A 549) and Eagle’s MEM (AppliChem) (MCF7, HeLa) with 10% fetal calf serum (HyClone). Cells were cultivated at 37 °C in a humidified atmosphere of 5% CO2. Cellular sensitivities to clofarabine and its lipid derivatives were measured with the MTT assay. Cells were plated in triplicate in 96-well plates (10^5 cells/well for suspended cell cultures and 5 × 10^3 cells/well for monolayer cultures); on the same day (suspended cell cultures) or on the following day (monolayer cultures), compounds were added at the appropriate dilutions. Plates were incubated under standard conditions for 48 h. Thereafter, 10 μL of MTT (Sigma) in phosphate-buffered saline (5 mg/mL) was added. The plates were incubated for an additional 4 h, and 150 μL of dimethyl sulfoxide (DMSO) was added to dissolve the formazan crystals. The optical density was read on a HALO MPR-95 Microplate Reader (Dynamica Scientific Ltd., Australia) at 570 nm. The antiproliferative effects were determined as degrees of inhibition of tumor cells (%).

IGF1R = molecular target: T6, IGF1R (Homo sapiens, UniProt P08069); assay: ADP-Glo kinase inhibitory assay, IGF1R; format: biochemical; conditions: read-out: % Inhibition at 10 nM, IGF1R
T6 construct: purchased Promega
Experimental: as §3, §4, §5

InsR = molecular target: T7, InsR (Homo sapiens, UniProt P06213); assay: ADP-Glo kinase inhibitory assay, InsR; format: biochemical; conditions: for inhibition at 0.01 µM: read-out: % Inhibition at 10 nM, InsR; for selectivity for the gene insulin receptor, in words: 10 nM, panel of eight receptor tyrosine kinases
T7 construct: purchased Promega
Experimental: as §3, §4, §5

HER-4 = molecular target: T8, HER-4 (Homo sapiens, UniProt Q15303); assay: ADP-Glo kinase inhibitory assay, HER-4; format: biochemical; conditions: for inhibitory activity in relation to HER-4, in words: 10 nM, compared with imatinib; for inhibition at 0.01 µM: read-out: % Inhibition at 10 nM, HER-4
T8 construct: purchased Promega
Experimental: as §3, §4, §5

T5 sequence (P09619 33-1106): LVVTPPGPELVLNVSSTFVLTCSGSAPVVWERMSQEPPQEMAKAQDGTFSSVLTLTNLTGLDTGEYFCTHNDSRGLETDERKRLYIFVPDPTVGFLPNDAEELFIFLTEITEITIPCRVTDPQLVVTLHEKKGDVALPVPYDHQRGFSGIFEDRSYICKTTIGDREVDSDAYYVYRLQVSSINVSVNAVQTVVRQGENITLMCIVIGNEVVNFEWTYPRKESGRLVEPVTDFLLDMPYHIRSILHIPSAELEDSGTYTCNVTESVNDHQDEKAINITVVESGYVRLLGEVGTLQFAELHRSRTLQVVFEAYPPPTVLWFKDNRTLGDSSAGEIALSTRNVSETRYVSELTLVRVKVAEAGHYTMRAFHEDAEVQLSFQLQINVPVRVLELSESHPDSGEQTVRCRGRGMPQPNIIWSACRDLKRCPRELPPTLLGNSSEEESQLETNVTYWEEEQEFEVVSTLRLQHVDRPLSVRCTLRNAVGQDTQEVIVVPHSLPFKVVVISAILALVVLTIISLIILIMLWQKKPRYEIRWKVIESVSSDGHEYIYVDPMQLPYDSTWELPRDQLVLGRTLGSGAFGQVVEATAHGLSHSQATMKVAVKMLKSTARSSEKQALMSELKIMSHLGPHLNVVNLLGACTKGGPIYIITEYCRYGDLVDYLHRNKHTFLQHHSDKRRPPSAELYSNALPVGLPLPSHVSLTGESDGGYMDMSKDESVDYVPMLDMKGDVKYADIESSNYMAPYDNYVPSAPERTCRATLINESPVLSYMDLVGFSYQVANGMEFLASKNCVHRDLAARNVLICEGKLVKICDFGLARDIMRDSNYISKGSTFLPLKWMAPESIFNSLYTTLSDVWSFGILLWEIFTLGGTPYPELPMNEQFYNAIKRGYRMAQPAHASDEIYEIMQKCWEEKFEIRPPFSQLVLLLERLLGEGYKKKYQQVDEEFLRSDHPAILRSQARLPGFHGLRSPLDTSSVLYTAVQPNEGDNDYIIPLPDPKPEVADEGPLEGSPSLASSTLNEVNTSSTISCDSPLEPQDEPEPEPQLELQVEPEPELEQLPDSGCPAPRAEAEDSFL
T3 sequence (P35968 20-1356): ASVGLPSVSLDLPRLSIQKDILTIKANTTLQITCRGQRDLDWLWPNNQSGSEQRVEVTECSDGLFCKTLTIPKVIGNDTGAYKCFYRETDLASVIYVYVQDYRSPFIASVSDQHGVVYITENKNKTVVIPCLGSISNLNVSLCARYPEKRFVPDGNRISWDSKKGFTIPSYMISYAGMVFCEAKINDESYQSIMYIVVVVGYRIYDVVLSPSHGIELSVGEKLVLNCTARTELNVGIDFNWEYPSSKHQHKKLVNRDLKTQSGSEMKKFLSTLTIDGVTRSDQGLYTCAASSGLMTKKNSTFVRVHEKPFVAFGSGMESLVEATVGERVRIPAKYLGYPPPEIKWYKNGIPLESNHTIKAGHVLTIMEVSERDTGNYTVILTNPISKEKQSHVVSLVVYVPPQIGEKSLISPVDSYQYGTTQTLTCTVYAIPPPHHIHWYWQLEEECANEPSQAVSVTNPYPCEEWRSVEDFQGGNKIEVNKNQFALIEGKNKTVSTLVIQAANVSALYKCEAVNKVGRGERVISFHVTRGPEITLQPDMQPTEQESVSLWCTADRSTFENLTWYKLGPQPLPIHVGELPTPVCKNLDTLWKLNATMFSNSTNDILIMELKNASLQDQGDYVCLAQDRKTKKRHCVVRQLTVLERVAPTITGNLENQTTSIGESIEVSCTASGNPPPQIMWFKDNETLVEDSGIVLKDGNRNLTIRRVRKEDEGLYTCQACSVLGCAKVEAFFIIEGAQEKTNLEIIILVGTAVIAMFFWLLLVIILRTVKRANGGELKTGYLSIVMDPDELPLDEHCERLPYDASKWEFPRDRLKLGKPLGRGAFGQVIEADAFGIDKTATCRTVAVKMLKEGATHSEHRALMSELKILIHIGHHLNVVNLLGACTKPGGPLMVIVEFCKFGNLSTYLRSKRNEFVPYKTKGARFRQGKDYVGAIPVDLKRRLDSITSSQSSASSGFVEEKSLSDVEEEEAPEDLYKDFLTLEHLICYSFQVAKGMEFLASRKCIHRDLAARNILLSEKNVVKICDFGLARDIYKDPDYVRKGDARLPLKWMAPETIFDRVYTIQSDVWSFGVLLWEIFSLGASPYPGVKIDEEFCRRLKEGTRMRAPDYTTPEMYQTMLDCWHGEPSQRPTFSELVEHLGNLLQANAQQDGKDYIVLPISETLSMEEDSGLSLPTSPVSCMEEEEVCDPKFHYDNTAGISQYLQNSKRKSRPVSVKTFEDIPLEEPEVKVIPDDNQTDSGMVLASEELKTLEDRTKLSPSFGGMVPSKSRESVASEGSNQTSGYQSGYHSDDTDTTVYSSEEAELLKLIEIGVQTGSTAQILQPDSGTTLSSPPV
T4 sequence (P00533 25-1210): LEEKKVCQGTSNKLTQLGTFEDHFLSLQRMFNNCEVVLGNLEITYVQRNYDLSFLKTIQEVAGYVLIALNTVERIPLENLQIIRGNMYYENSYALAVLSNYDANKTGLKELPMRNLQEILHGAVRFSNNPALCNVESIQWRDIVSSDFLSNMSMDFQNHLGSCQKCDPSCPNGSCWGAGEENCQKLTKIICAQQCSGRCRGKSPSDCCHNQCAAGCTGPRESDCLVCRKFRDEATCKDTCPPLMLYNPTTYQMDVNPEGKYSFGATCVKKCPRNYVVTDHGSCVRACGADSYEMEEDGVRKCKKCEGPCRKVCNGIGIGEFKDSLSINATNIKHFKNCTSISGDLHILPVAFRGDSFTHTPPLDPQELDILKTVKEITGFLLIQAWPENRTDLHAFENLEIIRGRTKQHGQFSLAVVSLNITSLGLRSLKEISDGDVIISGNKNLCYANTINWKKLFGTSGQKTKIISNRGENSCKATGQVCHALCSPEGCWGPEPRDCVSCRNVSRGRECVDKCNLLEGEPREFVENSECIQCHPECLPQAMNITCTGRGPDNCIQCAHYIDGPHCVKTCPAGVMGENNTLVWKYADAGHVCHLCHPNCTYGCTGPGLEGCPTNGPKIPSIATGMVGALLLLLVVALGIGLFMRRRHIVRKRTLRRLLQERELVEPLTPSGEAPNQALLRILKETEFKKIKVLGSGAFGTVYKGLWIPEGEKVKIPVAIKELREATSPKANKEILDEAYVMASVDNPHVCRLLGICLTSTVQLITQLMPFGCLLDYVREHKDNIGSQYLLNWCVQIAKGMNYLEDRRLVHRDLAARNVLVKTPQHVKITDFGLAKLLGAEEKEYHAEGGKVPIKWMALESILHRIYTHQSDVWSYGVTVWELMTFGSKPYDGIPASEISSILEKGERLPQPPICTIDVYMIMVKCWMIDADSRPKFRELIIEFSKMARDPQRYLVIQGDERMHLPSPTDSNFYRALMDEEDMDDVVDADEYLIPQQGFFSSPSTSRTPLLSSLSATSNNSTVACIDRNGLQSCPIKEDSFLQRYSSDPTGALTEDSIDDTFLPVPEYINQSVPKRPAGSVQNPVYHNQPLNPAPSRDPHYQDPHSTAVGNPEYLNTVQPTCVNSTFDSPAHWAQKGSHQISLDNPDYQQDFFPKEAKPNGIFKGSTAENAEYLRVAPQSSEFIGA
T2 sequence (P16234 24-1089): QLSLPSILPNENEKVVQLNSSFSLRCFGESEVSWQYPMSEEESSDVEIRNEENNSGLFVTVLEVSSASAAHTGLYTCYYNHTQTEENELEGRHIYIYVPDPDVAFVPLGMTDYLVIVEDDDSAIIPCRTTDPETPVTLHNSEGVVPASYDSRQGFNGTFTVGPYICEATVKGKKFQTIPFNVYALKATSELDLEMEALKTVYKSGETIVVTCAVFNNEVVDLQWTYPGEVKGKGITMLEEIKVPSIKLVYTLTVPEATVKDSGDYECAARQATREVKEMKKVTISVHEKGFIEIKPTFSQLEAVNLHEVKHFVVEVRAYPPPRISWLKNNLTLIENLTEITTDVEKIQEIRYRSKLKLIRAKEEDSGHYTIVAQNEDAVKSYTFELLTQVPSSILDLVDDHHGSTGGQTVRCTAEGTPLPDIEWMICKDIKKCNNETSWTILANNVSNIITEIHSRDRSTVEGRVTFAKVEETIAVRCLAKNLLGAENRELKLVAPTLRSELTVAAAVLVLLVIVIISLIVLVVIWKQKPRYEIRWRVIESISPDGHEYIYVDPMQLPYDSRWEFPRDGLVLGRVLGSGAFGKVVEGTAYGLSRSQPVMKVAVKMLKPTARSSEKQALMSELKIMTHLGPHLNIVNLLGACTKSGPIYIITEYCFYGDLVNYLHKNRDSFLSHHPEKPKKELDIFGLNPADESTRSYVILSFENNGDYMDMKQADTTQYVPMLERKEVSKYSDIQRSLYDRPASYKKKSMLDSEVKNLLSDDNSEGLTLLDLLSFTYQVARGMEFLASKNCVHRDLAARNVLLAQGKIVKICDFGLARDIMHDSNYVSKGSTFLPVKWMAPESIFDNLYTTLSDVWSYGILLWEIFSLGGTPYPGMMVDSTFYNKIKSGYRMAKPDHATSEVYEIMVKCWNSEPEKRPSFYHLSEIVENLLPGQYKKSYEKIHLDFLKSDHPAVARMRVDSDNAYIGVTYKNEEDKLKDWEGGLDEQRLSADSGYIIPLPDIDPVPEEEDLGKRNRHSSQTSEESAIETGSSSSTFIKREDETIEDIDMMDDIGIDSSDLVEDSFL

Compound | IC50 [1] [µM] | IC50 ([2]; Homo sapiens, HL-60, 48 h) [µM] | IC50 (HeLa (cervix carcinoma)) [µM] | inhibition at 0.01 µM (HER-2) [%] | IC50 (A549 (lung carcinoma)) [µM] | inhibition at 0.01 µM (PDGFRa) [%] | IC50 [3] [µM] | IC50 [4] [µM] | inhibition at 0.01 µM (KDR (VEGFR2)) [%] | inhibition at 0.01 µM (EGFR) [%] | inhibition at 0.01 µM (PDGFRb) [%] | inhibition at 0.01 µM (IGF1R) [%] | inhibition at 0.01 µM (InsR) [%] | inhibitory activity in relation to HER-4, in words (HER-4) | inhibition at 0.01 µM (HER-4) [%] | melting point [°C] | IC50 ([2]; 48 h) [µM] | selectivity for the gene insulin receptor, in words (InsR) | inhibition at 100 µM [5] [%]
CNC(=O)c1cc(Oc2ccc(NCc3ccc(C(=O)Nc4cc(-n5cnc(C)c5)cc(C(F)(F)F)c4)cc3)cc2)ccn1 [Compound 10, N-methyl-4-(4-((4-((3-(4-methyl-1H-imidazol-1-yl)-5-(trifluoromethyl)phenyl)carbamoyl)benzyl)amino)phenoxy)picolinamide] | 81 | 8.2 | > 100 | 0 | > 100 | 66 | 40 | > 100 | 27 | 65 | 0 | 0 | 46 | comparable to imatinib | 51 | 153 to 156 |  |  | 10.4
Cc1cn(-c2cc(NCc3ccc(C(=O)Nc4cc([N+](=O)[O-])ccc4C)cc3)cc(C(F)(F)F)c2)cn1 [Compound 15, 4-({[3-(4-Methyl-1H-imidazol-1-yl)-5-(trifluoromethyl)phenyl]amino}methyl)-N-{[(2-methyl-5-nitrophenyl) benzoate] | > 100 | 5.6 | 78.5 | 0 | 73 | 0 | 31 | > 100 | 0 | 0 | 0 | 0 | 43 |  | 0 | 205 to 208 | 5.8 | high selectivity | 15.9
COc1ccc(C(=O)N2CCN(Cc3ccc(C(=O)Nc4cc(-n5cnc(C)c5)cc(C(F)(F)F)c4)cc3)CC2)cc1 [Compound 28i, 4-{[4-(4-Methoxybenzoyl)piperazin-1-yl]methyl}-N-[3-(4-methyl-1H-imidazol-1-yl)-5-(trifluoromethyl)phenyl]benzamide] | 78 | 38 | 11.5 | 0 | > 100 | 0 | 30.7 | 63 | 0 | 0 | 0 | 3 | 52 |  | 0 | 98 to 102 |  | high selectivity | 6.32

Further lines, with some results ahead:

IC50 [1] [µM] | IC50 ([2]; Homo sapiens, HL-60, 48 h) [µM] | IC50 (HeLa (cervix carcinoma)) [µM] | inhibition at 0.01 µM (HER-2) [%] | IC50 (A549 (lung carcinoma)) [µM] | inhibition at 0.01 µM (PDGFRa) [%] | IC50 [3] [µM] | IC50 [4] [µM] | inhibition at 0.01 µM (KDR (VEGFR2)) [%] | inhibition at 0.01 µM (EGFR) [%] | inhibition at 0.01 µM (PDGFRb) [%] | inhibition at 0.01 µM (IGF1R) [%] | inhibition at 0.01 µM (InsR) [%] | inhibitory activity in relation to HER-4, in words (HER-4) | inhibition at 0.01 µM (HER-4) [%] | melting point [°C] | IC50 ([2]; 48 h) [µM] | selectivity for the gene insulin receptor, in words (InsR) | Compound | inhibition at 100 µM [5] [%]
54.3 | 51 | 54 | 0 | 61 | 55 | 53 | 57 | 16 | 91 | 0 | 0 | 0 | comparable to imatinib | 49 | 83 to 85 |  |  | Cc1cn(-c2cc(NC(=O)c3ccc(CNc4cccc(C(F)(F)F)c4)cc3)cc(C(F)(F)F)c2)cn1 [Compound 11, N-(3-(4-methyl-1H-imidazol-1-yl)-5-(trifluoromethyl)phenyl)-4-(((3-(trifluoromethyl)phenyl)amino)methyl)benzamide] | 15.5
52 | 46 | 57.5 | 34 | 55 | 59 | 5.6 | 69 | 20 | 92 | 8 | 0 | 0 | comparable to imatinib | 54 | 129 to 131 |  |  | Cc1cn(-c2cc(NCc3ccc(C(=O)Nc4cccc(C(F)(F)F)c4)cc3)cc(C(F)(F)F)c2)cn1 [Compound 13, 4-({[3-(4-Methyl-1H-imidazol-1-yl)-5-(trifluoromethyl)phenyl]amino}methyl)-N-[3-(trifluoromethyl)phenyl]benzamide] | 9.36
